Laboratory results published in ChEMBL document CHEMBL3763031, “Design, synthesis and biological evaluation of monobactams as antibacterial agents against gram-negative bacteria” (2016).
Converted amounts (≈) assume the structure as drawn.

Columns and labels:
[1] = test system: Salmonella typhi; test: Antibacterial activity against beta-lactamase producing Salmonella typhi H901 after 18 hrs by agar dilution assay; assay type: functional, Salmonella enterica subsp. enterica serovar Typhi; conditions: Salmonella enterica, H901, 18 h
[2] = test system: Klebsiella pneumoniae; test: Antibacterial activity against ESBL negative Klebsiella pneumoniae 7 after 18 hrs by agar dilution assay; assay type: functional; conditions: Klebsiella pneumoniae, 7, 18 h
[3] = test system: Escherichia coli; test: Antibacterial activity against ESBL positive Escherichia coli 09-1 after 18 hrs by agar dilution assay; assay type: functional; conditions: 09-1, 18 h
[4] = test system: Citrobacter freundii; test: Antibacterial activity against beta-lactamase producing Citrobacter freundii 43864 after 18 hrs by agar dilution assay; assay type: functional; conditions: Citrobacter freundii, 43864, 18 h
[5] = test system: Klebsiella pneumoniae; test: Antibacterial activity against ESBL positive Klebsiella pneumoniae 09-25 after 18 hrs by agar dilution assay; assay type: functional; conditions: 09-25, 18 h
[6] = test system: Morganella morganii; test: Antibacterial activity against beta-lactamase producing Morganella morganii 25830 after 18 hrs by agar dilution assay; assay type: functional; conditions: Morganella morganii, 25830, 18 h
[7] = test system: Pseudomonas aeruginosa; test: Antibacterial activity against BL positive Pseudomonas aeruginosa PAO1 after 18 hrs by agar dilution assay; assay type: functional; conditions: PAO1, 18 h
[8] = test system: Pseudomonas aeruginosa; test: Antibacterial activity against BL positive Pseudomonas aeruginosa 09-14 after 18 hrs by agar dilution assay; assay type: functional; conditions: 09-14, 18 h
[9] = test system: Escherichia coli; test: Antibacterial activity against ESBL negative Escherichia coli 09-20 after 18 hrs by agar dilution assay; assay type: functional; conditions: 09-20, 18 h
[10] = test system: Providencia rettgeri; test: Antibacterial activity against Providencia rettgeri 31052 after 18 hrs by agar dilution assay; assay type: functional; conditions: Providencia rettgeri, 31052, 18 h
[11] = test system: Klebsiella pneumoniae; test: Antibacterial activity against NDM-1 positive Klebsiella pneumoniae BAA-2146 after 18 hrs by agar dilution assay; assay type: functional; conditions: BAA-2146, 18 h
[12] = test system: Klebsiella pneumoniae; test: Antibacterial activity against ESBL positive Klebsiella pneumoniae 700603 after 18 hrs by agar dilution assay; assay type: functional; conditions: Klebsiella pneumoniae, 700603, 18 h
[13] = test system: Escherichia coli; test: Antibacterial activity against ESBL negative Escherichia coli 25922 after 18 hrs by agar dilution assay; assay type: functional; conditions: Escherichia coli, 25922, 18 h
[14] = test system: Proteus mirabilis; test: Antibacterial activity against beta-lactamase producing Proteus mirabilis 09-1 after 18 hrs by agar dilution assay; assay type: functional; conditions: 09-1, 18 h
[15] = test system: Escherichia coli; test: Antibacterial activity against ESBL negative Escherichia coli 1515 after 18 hrs by agar dilution assay; assay type: functional; conditions: Escherichia coli, 1515, 18 h
[16] = test system: Enterobacter cloacae; test: Antibacterial activity against beta-lactamase producing Enterobacter cloacae 45301 after 18 hrs by agar dilution assay; assay type: functional; conditions: Enterobacter cloacae, 45301, 18 h
[17] = test system: Klebsiella aerogenes; test: Antibacterial activity against beta-lactamase producing Enterobacter aerogenes 45102 after 18 hrs by agar dilution assay; assay type: functional; conditions: Klebsiella aerogenes, 45102, 18 h
[18] = test system: Proteus vulgaris; test: Antibacterial activity against beta-lactamase producing Proteus vulgaris 29905 after 18 hrs by agar dilution assay; assay type: functional; conditions: Proteus vulgaris, 29905, 18 h
[19] = test system: Serratia marcescens; test: Antibacterial activity against beta-lactamase producing Serratia marcescens 41002 after 18 hrs by agar dilution assay; assay type: functional; conditions: Serratia marcescens, 41002, 18 h
[20] = test system: Pseudomonas aeruginosa; test: Antibacterial activity against BL positive Pseudomonas aeruginosa 27853 after 18 hrs by agar dilution assay; assay type: functional; conditions: Pseudomonas aeruginosa, 27853, 18 h
[21] = test system: Klebsiella pneumoniae; test: Antibacterial activity against ESBL negative Klebsiella pneumoniae 09-8 after 18 hrs by agar dilution assay; assay type: functional; conditions: 09-8, 18 h
[22] = test system: Escherichia coli; test: Antibacterial activity against Escherichia coli BL21 by microbroth dilution assay; assay type: functional
[23] = test system: Escherichia coli; test: Antibacterial activity against acrAB and acrEF knock-out Escherichia coli BL21 by microbroth dilution assay; assay type: functional
[24] = test system: Escherichia coli; test: Selectivity ratio of MIC for Escherichia coli BL21 to MIC for acrAB and acrEF knock-out Escherichia coli BL21; assay type: functional

Row | SMILES | MIC [1] [µg/mL] | MIC [2] [µg/mL] | MIC [3] [µg/mL] | MIC [4] [µg/mL] | MIC [5] [µg/mL] | MIC [6] [µg/mL] | MIC [7] [µg/mL] | MIC [8] [µg/mL] | MIC [9] [µg/mL] | MIC [10] [µg/mL] | MIC [11] [µg/mL] | MIC [12] [µg/mL] | MIC [13] [µg/mL] | MIC [14] [µg/mL] | MIC [15] [µg/mL] | MIC [17] [µg/mL] | MIC [18] [µg/mL] | MIC [19] [µg/mL] | MIC [20] [µg/mL] | MIC [21] [µg/mL] | further results
1 | CC1(C)[C@H](NC(=O)/C(=N\OCc2ccccc2)c2csc(N)n2)C(=O)N1S(=O)(=O)O | > 64 | > 64 | > 64 | > 64 | > 64 | > 64 | > 64 | > 64 | > 64 | > 64 | > 64 | > 64 | > 64 | > 64 | > 64 | > 64 | > 64 | > 64 | > 64 | > 64 | MIC [16]: > 64 µg/mL
2 | CCN(CC)CC.C[C@H]1[C@H](NC(=O)/C(=N\OCc2ccc(C(=O)N/N=C/c3ccc4ccccc4c3O)cc2)c2csc(N)n2)C(=O)N1S(=O)(=O)O | 8 | 2 | 64 | 8 | > 64 | 0.06 | 16 | 16 | 64 | ≤ 0.03 | > 64 | > 64 | 4 | 1 | 0.25 | 8 | 1 | 8 | 16 | 32 | MIC [16]: 4 µg/mL
3 | CCN(CC)CC.C[C@H]1[C@H](NC(=O)/C(=N\OCc2ccc(C(=O)N/N=C/c3ncc[nH]3)cc2)c2csc(N)n2)C(=O)N1S(=O)(=O)O | 1 | 8 | 64 | 2 | > 64 | 0.25 | 32 | 32 | 64 | 0.06 | > 64 | 64 | 4 | 2 | 8 | 2 | 0.125 | 4 | 32 | 8 | MIC [22]: 1 µg/mL; MIC [16]: 1 µg/mL; MIC [23]: ≤ 0.06 µg/mL
4 | CCN(CC)CC.C[C@H]1[C@H](NC(=O)/C(=N\OCc2ccc(C(=O)N/N=C/c3cccs3)cc2)c2csc(N)n2)C(=O)N1S(=O)(=O)O (relative stereo) | 1 | 2 | 64 | 2 | > 64 | 1 | 64 | 32 | 64 | ≤ 0.03 | > 64 | 64 | 4 | 4 | 4 | 2 | 0.06 | 2 | 64 | 8 | MIC [22]: 2 µg/mL; MIC [16]: 1 µg/mL; MIC [23]: ≤ 0.06 µg/mL; Selectivity ratio [24]: >16
5 | CC1(C)[C@H](NC(=O)/C(=N\OCc2ccc(C(=O)O)cc2)c2csc(N)n2)C(=O)N1S(=O)(=O)O | 32 (≈ 64.3 µM) | 2 (≈ 4.02 µM) | 4 (≈ 8.04 µM) | 2 (≈ 4.02 µM) | 8 (≈ 16.1 µM) | > 64 | > 64 | > 64 | 2 (≈ 4.02 µM) | ≤ 0.03 | 32 (≈ 64.3 µM) | > 64 | 4 (≈ 8.04 µM) | 8 (≈ 16.1 µM) | 8 (≈ 16.1 µM) | 8 (≈ 16.1 µM) | 0.06 (≈ 0.121 µM) | 4 (≈ 8.04 µM) | > 64 | 2 (≈ 4.02 µM) | MIC [16]: 2 µg/mL (≈ 4.02 µM)
6 | C[C@H]1[C@H](NC(=O)/C(=N\OC(C)(C)C(=O)O)c2csc(N)n2)C(=O)N1S(=O)(=O)O [AZTREONAM] | ≤ 0.03 | ≤ 0.03 | 8 (≈ 18.4 µM) | 0.125 (≈ 0.287 µM) | 32 (≈ 73.5 µM) | 0.125 (≈ 0.287 µM) | 0.5 (≈ 1.15 µM) | 4 (≈ 9.19 µM) | > 256 | ≤ 0.03 | 256 (≈ 588 µM) | 32 (≈ 73.5 µM) | 0.125 (≈ 0.287 µM) | ≤ 0.03 | 0.125 (≈ 0.287 µM) | ≤ 0.03 | ≤ 0.03 | 0.125 (≈ 0.287 µM) | 2 (≈ 4.59 µM) | 16 (≈ 36.7 µM) | 
